According to patent US20240415914A1, “Water Dispersible Cannabinoid Compositions” (priority 2021, published 2024):
Where two headings read alike, the source gives them in different places.

Columns and labels:
[1] = assay type: physicochemical; conditions: stored at room temperature (21-25° C.)
Procedure: At each time period, 0.05 g of powder was dissolved in 10 ml-15 of ethanol, diluted to fall within the analytical range, and injected into the LCMSMS for analysis.

[2] = Stability of cannabinoid and Vitamin E components of Beverage 2 (AB Red) stored at 8° C. and 21-25° C., LCMSMS over 570 days
Procedure: The LCMSMS was calibrated for 0-50 ng/ml cannabinoids with the same resin material used in the preparation of the concentrates. At each time period, 100 μml of beverage was diluted with 10 ml of methanol and injected into the LCMSMS for analysis.

## CCCCCc1cc(O)c(C/C=C(\C)CCC=C(C)C)c(O)c1 [CBG, cannabigerol]
[1]; day 0
  Stability in Powder Concentrate (content by LCMSMS): 1.1 mg/g powder
[1]; day 1
  Stability in Powder Concentrate (content by LCMSMS): 1.07 mg/g powder
[1]; day 2
  Stability in Powder Concentrate (content by LCMSMS): 1.08 mg/g powder
[1]; day 3
  Stability in Powder Concentrate (content by LCMSMS): 1.09 mg/g powder
[1]; day 5
  Stability in Powder Concentrate (content by LCMSMS): 1.11 mg/g powder
[1]; day 8
  Stability in Powder Concentrate (content by LCMSMS): 1.07 mg/g powder
[1]; day 9
  Stability in Powder Concentrate (content by LCMSMS): 1.09 mg/g powder
[1]; day 10
  Stability in Powder Concentrate (content by LCMSMS): 1.08 mg/g powder
[1]; day 11
  Stability in Powder Concentrate (content by LCMSMS): 1.14 mg/g powder
[1]; day 12
  Stability in Powder Concentrate (content by LCMSMS): 1.10 mg/g powder
[1]; day 15
  Stability in Powder Concentrate (content by LCMSMS): 1.08 mg/g powder
[1]; day 16
  Stability in Powder Concentrate (content by LCMSMS): 1.06 mg/g powder
[1]; day 17
  Stability in Powder Concentrate (content by LCMSMS): 1.06 mg/g powder
[1]; day 18
  Stability in Powder Concentrate (content by LCMSMS): 1.13 mg/g powder
[1]; day 19
  Stability in Powder Concentrate (content by LCMSMS): 1.14 mg/g powder
[1]; day 22
  Stability in Powder Concentrate (content by LCMSMS): 1.12 mg/g powder
[1]; day 23
  Stability in Powder Concentrate (content by LCMSMS): 1.13 mg/g powder
[1]; day 24
  Stability in Powder Concentrate (content by LCMSMS): 1.09 mg/g powder
[1]; day 25
  Stability in Powder Concentrate (content by LCMSMS): 1.13 mg/g powder
[1]; day 26
  Stability in Powder Concentrate (content by LCMSMS): 1.14 mg/g powder
[1]; day 29
  Stability in Powder Concentrate (content by LCMSMS): 1.10 mg/g powder
[1]; day 30
  Stability in Powder Concentrate (content by LCMSMS): 1.07 mg/g powder
[1]; day 60
  Stability in Powder Concentrate (content by LCMSMS): 1.1 mg/g powder
[1]; day 90
  Stability in Powder Concentrate (content by LCMSMS): 1.13 mg/g powder
[1]; day 120
  Stability in Powder Concentrate (content by LCMSMS): 1.09 mg/g powder
[1]; day 150
  Stability in Powder Concentrate (content by LCMSMS): 1.11 mg/g powder
[1]; day 180
  Stability in Powder Concentrate (content by LCMSMS): 1.07 mg/g powder
[1]; day 210
  Stability in Powder Concentrate (content by LCMSMS): 1.06 mg/g powder
[1]; day 240
  Stability in Powder Concentrate (content by LCMSMS): 1.12 mg/g powder
[1]; day 270
  Stability in Powder Concentrate (content by LCMSMS): 1.15 mg/g powder
[1]; day 300
  Stability in Powder Concentrate (content by LCMSMS): 1.09 mg/g powder
[1]; day 330
  Stability in Powder Concentrate (content by LCMSMS): 1.10 mg/g powder
[1]; day 360
  Stability in Powder Concentrate (content by LCMSMS): 1.09 mg/g powder
[1]; day 390
  Stability in Powder Concentrate (content by LCMSMS): 1.14 mg/g powder
[1]; day 420
  Stability in Powder Concentrate (content by LCMSMS): 1.11 mg/g powder
[1]; day 450
  Stability in Powder Concentrate (content by LCMSMS): 1.06 mg/g powder
[1]; day 480
  Stability in Powder Concentrate (content by LCMSMS): 1.12 mg/g powder
[1]; day 510
  Stability in Powder Concentrate (content by LCMSMS): 1.07 mg/g powder
[1]; day 540
  Stability in Powder Concentrate (content by LCMSMS): 1.07 mg/g powder
[1]; day 570
  Stability in Powder Concentrate (content by LCMSMS): 1.06 mg/g powder
[2]; 8° C., 0 days
  Stability of Cannabinoids in AB Red: 4.75 µg/mL
[2]; 8° C., 1 days
  Stability of Cannabinoids in AB Red: 4.62 µg/mL
[2]; 8° C., 2 days
  Stability of Cannabinoids in AB Red: 4.79 µg/mL
[2]; 8° C., 3 days
  Stability of Cannabinoids in AB Red: 4.70 µg/mL
[2]; 8° C., 5 days
  Stability of Cannabinoids in AB Red: 4.75 µg/mL
[2]; 8° C., 8 days
  Stability of Cannabinoids in AB Red: 4.76 µg/mL
[2]; 8° C., 9 days
  Stability of Cannabinoids in AB Red: 4.72 µg/mL
[2]; 8° C., 10 days
  Stability of Cannabinoids in AB Red: 4.68 µg/mL
[2]; 8° C., 11 days
  Stability of Cannabinoids in AB Red: 4.77 µg/mL
[2]; 8° C., 12 days
  Stability of Cannabinoids in AB Red: 4.64 µg/mL
[2]; 8° C., 15 days
  Stability of Cannabinoids in AB Red: 4.68 µg/mL
[2]; 8° C., 16 days
  Stability of Cannabinoids in AB Red: 4.65 µg/mL
[2]; 8° C., 17 days
  Stability of Cannabinoids in AB Red: 4.77 µg/mL
[2]; 8° C., 18 days
  Stability of Cannabinoids in AB Red: 4.67 µg/mL
[2]; 8° C., 19 days
  Stability of Cannabinoids in AB Red: 4.71 µg/mL
[2]; 8° C., 22 days
  Stability of Cannabinoids in AB Red: 4.70 µg/mL
[2]; 8° C., 23 days
  Stability of Cannabinoids in AB Red: 4.66 µg/mL
[2]; 8° C., 24 days
  Stability of Cannabinoids in AB Red: 4.65 µg/mL
[2]; 8° C., 25 days
  Stability of Cannabinoids in AB Red: 4.73 µg/mL
[2]; 8° C., 26 days
  Stability of Cannabinoids in AB Red: 4.68 µg/mL
[2]; 8° C., 29 days
  Stability of Cannabinoids in AB Red: 4.80 µg/mL
[2]; 8° C., 30 days
  Stability of Cannabinoids in AB Red: 4.72 µg/mL
[2]; 8° C., 60 days
  Stability of Cannabinoids in AB Red: 4.70 µg/mL
[2]; 8° C., 90 days
  Stability of Cannabinoids in AB Red: 4.73 µg/mL
[2]; 8° C., 120 days
  Stability of Cannabinoids in AB Red: 4.68 µg/mL
[2]; 8° C., 150 days
  Stability of Cannabinoids in AB Red: 4.67 µg/mL
[2]; 8° C., 180 days
  Stability of Cannabinoids in AB Red: 4.65 µg/mL
[2]; 8° C., 210 days
  Stability of Cannabinoids in AB Red: 4.60 µg/mL
[2]; 8° C., 240 days
  Stability of Cannabinoids in AB Red: 4.68 µg/mL
[2]; 8° C., 270 days
  Stability of Cannabinoids in AB Red: 4.66 µg/mL
[2]; 8° C., 300 days
  Stability of Cannabinoids in AB Red: 4.70 µg/mL
[2]; 8° C., 330 days
  Stability of Cannabinoids in AB Red: 4.60 µg/mL
[2]; 8° C., 390 days
  Stability of Cannabinoids in AB Red: 4.55 µg/mL
[2]; 8° C., 420 days
  Stability of Cannabinoids in AB Red: 4.58 µg/mL
[2]; 8° C., 450 days
  Stability of Cannabinoids in AB Red: 4.54 µg/mL
[2]; 8° C., 480 days
  Stability of Cannabinoids in AB Red: 4.51 µg/mL
[2]; 8° C., 510 days
  Stability of Cannabinoids in AB Red: 4.40 µg/mL
[2]; 8° C., 540 days
  Stability of Cannabinoids in AB Red: 4.42 µg/mL
[2]; 8° C., 570 days
  Stability of Cannabinoids in AB Red: 4.37 µg/mL
[2]; 21-25° C., 0 days
  Stability of Cannabinoids in AB Red: 4.75 µg/mL
[2]; 21-25° C., 1 days
  Stability of Cannabinoids in AB Red: 4.57 µg/mL
[2]; 21-25° C., 2 days
  Stability of Cannabinoids in AB Red: 4.61 µg/mL
[2]; 21-25° C., 3 days
  Stability of Cannabinoids in AB Red: 4.71 µg/mL
[2]; 21-25° C., 5 days
  Stability of Cannabinoids in AB Red: 4.66 µg/mL
[2]; 21-25° C., 8 days
  Stability of Cannabinoids in AB Red: 4.66 µg/mL
[2]; 21-25° C., 9 days
  Stability of Cannabinoids in AB Red: 4.74 µg/mL
[2]; 21-25° C., 10 days
  Stability of Cannabinoids in AB Red: 4.59 µg/mL
[2]; 21-25° C., 11 days
  Stability of Cannabinoids in AB Red: 4.72 µg/mL
[2]; 21-25° C., 12 days
  Stability of Cannabinoids in AB Red: 4.62 µg/mL
[2]; 21-25° C., 15 days
  Stability of Cannabinoids in AB Red: 4.80 µg/mL
[2]; 21-25° C., 16 days
  Stability of Cannabinoids in AB Red: 4.75 µg/mL
[2]; 21-25° C., 17 days
  Stability of Cannabinoids in AB Red: 4.63 µg/mL
[2]; 21-25° C., 18 days
  Stability of Cannabinoids in AB Red: 4.70 µg/mL
[2]; 21-25° C., 19 days
  Stability of Cannabinoids in AB Red: 4.66 µg/mL
[2]; 21-25° C., 22 days
  Stability of Cannabinoids in AB Red: 4.71 µg/mL
[2]; 21-25° C., 23 days
  Stability of Cannabinoids in AB Red: 4.67 µg/mL
[2]; 21-25° C., 24 days
  Stability of Cannabinoids in AB Red: 4.78 µg/mL
[2]; 21-25° C., 25 days
  Stability of Cannabinoids in AB Red: 4.56 µg/mL
[2]; 21-25° C., 26 days
  Stability of Cannabinoids in AB Red: 4.77 µg/mL
[2]; 21-25° C., 29 days
  Stability of Cannabinoids in AB Red: 4.78 µg/mL
[2]; 21-25° C., 30 days
  Stability of Cannabinoids in AB Red: 4.73 µg/mL
[2]; 21-25° C., 60 days
  Stability of Cannabinoids in AB Red: 4.61 µg/mL
[2]; 21-25° C., 90 days
  Stability of Cannabinoids in AB Red: 4.55 µg/mL
[2]; 21-25° C., 120 days
  Stability of Cannabinoids in AB Red: 4.61 µg/mL
[2]; 21-25° C., 150 days
  Stability of Cannabinoids in AB Red: 4.65 µg/mL
[2]; 21-25° C., 180 days
  Stability of Cannabinoids in AB Red: 4.53 µg/mL
[2]; 21-25° C., 210 days
  Stability of Cannabinoids in AB Red: 4.63 µg/mL
[2]; 21-25° C., 240 days
  Stability of Cannabinoids in AB Red: 4.56 µg/mL
[2]; 21-25° C., 270 days
  Stability of Cannabinoids in AB Red: 4.68 µg/mL
[2]; 21-25° C., 300 days
  Stability of Cannabinoids in AB Red: 4.47 µg/mL
[2]; 21-25° C., 330 days
  Stability of Cannabinoids in AB Red: 4.57 µg/mL
[2]; 21-25° C., 390 days
  Stability of Cannabinoids in AB Red: 4.57 µg/mL
[2]; 21-25° C., 420 days
  Stability of Cannabinoids in AB Red: 4.51 µg/mL
[2]; 21-25° C., 450 days
  Stability of Cannabinoids in AB Red: 4.63 µg/mL
[2]; 21-25° C., 480 days
  Stability of Cannabinoids in AB Red: 4.44 µg/mL
[2]; 21-25° C., 510 days
  Stability of Cannabinoids in AB Red: 4.37 µg/mL
[2]; 21-25° C., 540 days
  Stability of Cannabinoids in AB Red: 4.49 µg/mL
[2]; 21-25° C., 570 days
  Stability of Cannabinoids in AB Red: 4.36 µg/mL
